In one series the test system is KB tumors. Briefly: Inhibition of tumor growth, s.c. KB tumors. To be noted: for CR (%) / Cures (%) / PR (%): TIW, 2 weeks. It is filed as in vivo, nu/nu mice. On the procedure: METHOD. Inhibition of Tumor Growth in Mice. Four to seven week-old mice (Balb/c or nu/nu strains) were purchased from Harlan Sprague Dawley, Inc. (Indianapolis, Ind.). Normal rodent chow contains a high concentration of folic acid (6 mg/kg chow); accordingly, test animals were maintained on a folate-free diet (Harlan diet #TD00434) for about 1 week before tumor implantation to achieve serum folate concentrations close to the range of normal human serum, and during the Method. For tumor cell inoculation, 1×10^6 M109 cells (a syngeneic lung carcinoma) in Balb/c strain, or 1×10^6 KB cells in nu/nu strain, in 100 μL were injected in the subcutis of the dorsal medial area (right axilla). Tumors were measured in two perpendicular directions every 2-3 days using a caliper, and their volumes were calculated as 0.5×L×W^2, where L=measurement of longest axis in mm and W=measurement of axis perpendicular to L in mm.
Dosing solutions were prepared fresh each day in PBS and administered through the lateral tail vein of the mice.
Tumor implantation. KB tumor cells were grown in folate-deficient RPMI 1640 with 5% FBS at 37° C. in a 5% CO2 humidified atmosphere. KB (1×10^6 cells per animal) tumor cells were inoculated subcutaneously […] post start of the folate deficient diet. Mice were dosed after the tumors reached between 100-150 mm3.
Preparation of dosing drug solutions. Dosing solutions were prepared when dosing began by weighing appropriate amounts of each compound, reconstituting in PBS, pH 7.4, sterile filtering the drug solution through a 0.22 µm PVDF syringe filter, and freezing aliquots for each day of dosing at −20° C.
(§1) Evaluation. Tumor size was monitored and body weight measured 3 times/week. Attention was given to gross animal morphology and behavior. Euthanasia was performed if the mice lost >20% of weight or when the tumors reached a size of 1500 mm3. Euthanasia was also performed at the researcher's discretion if mice lost a lot of weight in a short duration or when mice were approaching moribund conditions. Blood samples were collected by cardiac puncture from all viable animals from selected cohorts. Heart, lungs, liver, spleen, kidney, intestines, bone, brain and muscle were obtained immediately after euthanasia. The tissues were removed and stored in 10% neutral-buffered formalin.
For example, a 50% decrease in tumor volume from the initial measurement represents a partial response.
For example, a decrease in tumor volume where the measurements in two perpendicular directions are each about 2 mm or less represents a complete response.

Series [1] in a line: Toxicity as measured by weight loss / gross animal toxicity in tumor-bearing mice. To be noted: for Toxicity Avg. Weight Loss / Toxicity Deaths (%): TIW, 2 weeks. On the procedure:
METHOD. Toxicity as Measured by Weight Loss. The percentage weight change of the test animals was determined on selected days post-tumor inoculation (PTI), and during dosing. The results were graphed.
as §1

The subject of a further series is ST040 tumors. Briefly: Endometrial PDX tumor model. The format is in vivo, Balb/c nu/nu mice. To be noted: Paclitaxel 15 mg/kg once a week for two weeks. Here is the method:
(§2) Female Balb/c nu/nu mice were fed ad libitum with folate-deficient chow (Harlan diet #TD01013) for the duration of the experiment. Primary human Endometrial model ST040, TNBC models 5T502 and ST738 and Ovarian model ST024 fragments (2-4 mm in diameter) were inoculated subcutaneously at the right flank of each mouse. Mice were randomized into 6 experimental groups of 5 or 3 mice each and test articles were injected through the lateral tail vein under sterile conditions in a volume of 200 μL of phosphate-buffered saline (PBS).
(§3) Growth of each s.c. tumor was followed by measuring the tumor two times per week until a volume of 1200 mm^3 was reached. Tumors were measured in two perpendicular directions using Vernier calipers, and their volumes were calculated as 0.5×L×W^2, where L=measurement of longest axis in mm and W=measurement of axis perpendicular to L in mm.

The test system of a further series is ST024 tumors. Briefly: Ovarian PDX tumor model. It is filed as in vivo, Balb/c nu/nu mice. The following applies: Paclitaxel 15 mg/kg once a week for two weeks. On the procedure: as §2, §3
A short description of series [2]: Cytotoxicity of unconjugated drugs to cells in culture. The format is cell-based. The following applies: cells in culture; unconjugated drug; read-out: typical IC50, cytotoxic to cells in culture.
The next series relates to LU1147 NSCLC tumors. Briefly: Huprime NSCLC PDX tumor model. It is filed as in vivo, Balb/c nu/nu mice. The following applies: Docetaxel 15 mg/kg (one dose). Here is the method: (§4) Female Balb/c nu/nu mice were fed ad libitum with folate-deficient chow (Harlan diet #TD01013) for the duration of the experiment. Primary human NSCLC models LU1147 or LU2505 fragments (2-4 mm in diameter) were inoculated subcutaneously at the right flank of each mouse. Mice were randomized into experimental groups of 7 mice and test articles were injected through the lateral tail vein under sterile conditions in a volume of 200 μL of phosphate-buffered saline (PBS). These studies were performed at Crown Bioscience (Beijing) Inc., Ground Floor, Light Muller Building, Changping Sector of Zhongguancun Scientific Park, No. 21 Huoju Road, Changping District, Beijing, P.R. China.
as §3

The next series concerns LU2505 NSCLC tumors. Briefly: Huprime NSCLC PDX tumor model. The format is in vivo, Balb/c nu/nu mice. The following applies: Docetaxel 15 mg/kg (one dose). Here is the method:
as §4, §3

The test system of series [3] is KB-CR2000 (cisplatin resistant) tumors. Briefly: Cisplatin-resistant KB-CR2000 tumor model. To be noted: cisplatin 3 mg/kg twice per week, 2 weeks. It is filed as in vivo, mice. The source says: METHOD. Human cisplatin-resistant cell line. […] In addition, regrowth of the tumor was only observed in 1/5 test animals.
A further series has as its system ST502 tumors. Briefly: TNBC PDX tumor model. The format is in vivo, Balb/c nu/nu mice. To be noted: Eribulin mesylate 1 mg/kg once a week for two weeks. On the procedure: as §2, §3
The next series concerns ST738 tumors. Briefly: TNBC PDX tumor model. The format is in vivo, Balb/c nu/nu mice. The following applies: Eribulin mesylate 1 mg/kg once a week for two weeks. On the procedure:
as §2, §3

In a further series the test system is cells in culture. Briefly: Cytotoxicity of unconjugated drugs to cells in culture. The following applies: unconjugated drug; read-out: typical IC50, cytotoxic to cells in culture. It is filed as cell-based.
Setting [4] is: Carboplatin 30 mg/kg BIW×2 combined with paclitaxel 10 mg/kg BIW×2.
Setting [5] is: 1.0 μmol/kg (2 doses, only 2 doses due to toxicity).
Where [6] appears, read: KB tumors, 1.0 μmol/kg (2 doses).
The mark [7] stands for this setting: KB tumors, 0.1 μmol/kg (4 doses).
The mark [8] stands for this setting: KB tumors, 0.2 μmol/kg (3 doses).
The mark [9] stands for this setting: KB tumors, 0.5 μmol/kg (1 dose).

Each structure is given as a SMILES string. Structures can show the parent of a compound that is named as a salt.

The values below come from US20170035894A1, “DRUG DELIVERY CONJUGATES FOR TREATING RESISTANT CANCER AND FOR USE IN COMBINATION THERAPY” (ENDOCYTE, INC., priority 2014, published 2017).

As for `N.N.O=C([O-])C1(C(=O)[O-])CCC1.[Pt+2]` [carboplatin, reference compound], in the series with KB tumors (setting [4]), the “CR's” value is reported as 80% and the cures turned out to be 20%. Further, the toxicity result in [1] (KB tumors, carboplatin/paclitaxel study, carboplatin administered alone) is on record as “Mild toxicity”. Besides, the toxicity entry in series [1] (P-1635 KB tumors, carboplatin alone 50 mg/kg TIW) is “Mild toxicity”.
Consider `CC(=O)O[C@H]1C(=O)[C@@]2(C)[C@H]([C@H](OC(=O)c3ccccc3)[C@]3(O)C[C@H](OC(=O)[C@H](O)[C@@H](NC(=O)c4ccccc4)c4ccccc4)C(C)=C1C3(C)C)[C@]1(OC(C)=O)CO[C@@H]1C[C@@H]2O` [Paclitaxel, paclitaxel, reference compound], for which the “animals exhibiting stable disease” value with ST040 tumors was “zero”. Moreover, in the series on ST024 tumors, the anti-tumor activity entry is reported as “no anti-tumor activity”.
Broadly, the IC50 is the concentration that gives 50% inhibition. With `CCCC(=O)OCN(C(=O)[C@@H](NC(=O)[C@H]1CCCCN1C)C(C)CC)[C@H](C[C@@H](OC(C)=O)c1nc(C(=O)N[C@@H](Cc2ccc(O)cc2)C[C@H](C)C(=O)NN)cs1)C(C)C` (stereo partly shown) [TubB-H, reference compound], the IC50 in series [2] was approximately 1 nM. In addition, the “CR (%)” value in the series on KB tumors (0.5 μmol/kg), in the series on KB tumors (0.75 μmol/kg) and in the series with KB tumors (setting [5]) was 0% in each case. Further, the “Cures (%)” value with KB tumors (0.5 μmol/kg), in the series with KB tumors (0.75 μmol/kg) and in the series with KB tumors (setting [5]) was 0% each time. The “PR (%)” value in the series with KB tumors (0.5 μmol/kg), in the series with KB tumors (0.75 μmol/kg) and in the series on KB tumors (setting [5]) was 0% throughout. Further, the “Toxicity Avg. Weight Loss” value in series [1] (KB tumors, 0.5 μmol/kg) was less than 5.5%; in series [1] (KB tumors, 0.75 μmol/kg), more than 10%; in series [1] (setting [6]) it was more than 15%. Moreover, the “Toxicity Deaths (%)” value came to 0% in series [1] (KB tumors, 0.5 μmol/kg); 20% in series [1] (KB tumors, 0.75 μmol/kg); 20% in [1] (setting [6]).
Regarding `CC(=O)O[C@@]12CO[C@@H]1C[C@H](O)[C@@]1(C)C(=O)[C@H](O)C3=C(C)[C@@H](OC(=O)[C@H](O)[C@@H](NC(=O)OC(C)(C)C)c4ccccc4)C[C@@](O)([C@@H](OC(=O)c4ccccc4)[C@H]21)C3(C)C` [docetaxel], the toxicity entry in series [1] (KB tumors, docetaxel alone 7 mg/kg BIW×3) was “Mild toxicity”. In addition, the “animals exhibiting stable disease” value in the series on LU1147 NSCLC tumors was 2 animals. In addition, in the series on LU2505 NSCLC tumors, the “CR's” value came out at 2, the “PR's” value is on record as 2 and the cures is reported as 2.
With `N.N.[Cl][Pt][Cl]` [cisplatin, reference compound], in series [3], the “partial response (PR)” value is “did not produce even a single partial response”.
As for `COc1cccc2c1C(=O)c1c(O)c3c(c(O)c1C2=O)C[C@@](O)(C(=O)CO)C[C@@H]3O[C@H]1C[C@H](N)[C@H](O)[C@H](C)O1` [doxorubicin, reference compound], in series [1] (KB-DR150 tumors, doxorubicin alone, DOXIL 5 mg/kg BIW×2), the toxicity entry was “Mild toxicity”.
On to `C=C1C[C@@H]2CC[C@@]34C[C@H]5O[C@H]6[C@@H](O3)[C@H]3O[C@H](CC[C@@H]3O[C@H]6[C@H]5O4)CC(=O)C[C@@H]3[C@@H](OC)[C@@H](C[C@H](O)CN)O[C@H]3C[C@H]3O[C@@H](CC[C@@H]1O2)C[C@@H](C)C3=C` [Eribulin mesylate, eribulin mesylate, reference compound], for which, in the series on ST502 tumors, the “animal exhibiting PR” value is 1 animal and the “animal exhibiting stable disease” value is recorded as 1 animal. Besides, in the series on ST738 tumors, the “PR's” value came out at 2 and the “animals exhibiting stable disease” value was 5 animals.
With `CCCC(=O)OCN(C(=O)[C@@H](NC(=O)[C@H]1CCCCN1C)[C@@H](C)CC)[C@H](C[C@@H](OC(C)=O)c1nc(C(=O)N[C@@H](Cc2ccc(O)cc2)C[C@H](C)C(=O)O)cs1)C(C)C` [Tubulysin B, tubulysin B, reference compound], the IC50 in the series with cells in culture is approximately 1 nM. Besides, the “CR (%)” value in the series with KB tumors (0.1 μmol/kg (4 doses)), in the series with KB tumors (0.2 μmol/kg (3 doses)) and in the series on KB tumors (0.5 μmol/kg (1 dose)) was 0% throughout. The “Cures (%)” value in the series with KB tumors (0.1 μmol/kg (4 doses)), in the series with KB tumors (0.2 μmol/kg (3 doses)) and with KB tumors (0.5 μmol/kg (1 dose)) was 0% in each case. Moreover, the “PR (%)” value in the series with KB tumors (0.1 μmol/kg (4 doses)), in the series on KB tumors (0.2 μmol/kg (3 doses)) and in the series on KB tumors (0.5 μmol/kg (1 dose)) was 0% each time. Further, the entries for the “Toxicity Avg. Weight Loss” value in [1] (setting [7]), in [1] (setting [8]) and in series [1] (setting [9]) were more than 20%, more than 18% and more than 15%, respectively. Moreover, the “Toxicity Deaths (%)” value in [1] (setting [7]), in series [1] (setting [8]) and in [1] (setting [9]) was 100% each time.
